# From ChEMBL document CHEMBL1135216, “New 2-(1-adamantylcarbonyl)pyridine and 1-acetyladamantane thiosemicarbazones-thiocarbonohydrazones: cell growth inhibitory, antiviral and antimicrobial activity evaluation” (Bioorg Med Chem Lett, 2002)
# How the values were obtained:
# RPMI-8226 [1] = test: Tested for the inhibitory concentration against cell growth of […] multiple myeloma using MTT assay; format: functional; settings: Homo sapiens
# Escherichia coli = test: Tested for the antimicrobial activity against Escherichia coli ATCC 25922; format: functional
# E6SM [2] = test: Tested for antiviral activity against VSV-virus in human embryonic skin muscle fibroblasts; format: functional; settings: Muscle tissue
# E6SM [3] = test: Tested for antiviral activity against herpes simplex virus type 1(KOS) in E6SM cell line(human embryonic skin-muscle fibroblasts); format: functional
# Vero [4] = test: Tested for cytotoxic activity in African green monkey kidney cells (Vero); format: functional; settings: Chlorocebus sabaeus
# E6SM [5] = test: Antiviral activity against thymidine kinase-deficient (TK-HSV-2G) virus in E6SM cell line(human embryonic skin-muscle fibroblasts); format: functional
# Vero [6] = test: Tested for antiviral activity against Reo-1 virus in African green monkey kidney cell (Vero); format: functional; settings: Chlorocebus sabaeus
# HEL [7] = test: Tested for antiviral activity against human cytomegalovirus (AD-169) in human embryonic lung fibroblasts; format: functional
# RPMI-8226 [8] = test: Tested for the inhibitory concentration against cell growth of human leukemic cell line RPMI8226; format: functional
# E6SM [9] = test: Tested for cytotoxic activity in human embryonic skin muscle fibroblast (E6SM); format: functional; settings: Muscle tissue
# MT4 [10] = test: Tested for cytotoxic concentration required to reduce the viability of MT-4 cells by 50%; format: functional; settings: Homo sapiens
# Klebsiella pneumoniae = test: Tested for the antimicrobial activity against Klebsiella pneumoniae ATCC 13883; format: functional
# MOLT-4 [11] = test: Tested for the concentration required to reduce the viability of leukemia cells by 50% against cell growth of T cell leukemia cell line MOLT-4 using MTT assay; format: functional; settings: Homo sapiens, read-out: LC50 (the source's name)
# K562 [12] = test: Tested for the inhibitory concentration against cell growth of human leukemic cell line K562; format: functional
# [13] = (§1) Tested for the antimicrobial activity against Staphylococcus hominis ATCC 27844; format: functional
# CCRF-CEM [14] = test: Tested for the inhibitory concentration against cell growth of human leukemic cell line CCRF-CEM; format: functional
# CCRF-CEM [15] = test: Tested for the inhibitory concentration against cell growth of Tcell leukemic cell line CCRF-CEM using MTT assay; format: functional; settings: Homo sapiens
# HuT78 [16] = test: Tested for the inhibitory concentration against cell growth of HuT78 T lymphoma using MTT assay; format: functional; settings: Homo sapiens
# K562 [17] = test: Tested for the concentration required to reduce the viability of leukemia cells by 50% against cell growth of K562 chronic myeloid leukemia using MTT assay; format: functional; settings: Homo sapiens, read-out: LC50 (the source's name)
# HL-60 [18] = test: Tested for the inhibitory concentration against cell growth of human leukemic cell line HL60; format: functional
# HEL [19] = test: Tested for cytotoxic activity in human embryonic lung fibroblast (HEL); format: functional
# MOLT-4 [20] = test: Tested for the inhibitory concentration against cell growth of human leukemic cell line MOLT-4; format: functional
# Staphylococcus aureus = test: Tested for the antimicrobial activity against Staphylococcus aureus ATCC 6538; format: functional
# Vero [21] = test: Tested for antiviral activity against coxsackie B-4 virus in African green monkey kidney cell (Vero); format: functional; settings: Chlorocebus sabaeus
# Vero [22] = test: Tested for antiviral activity against Sindbis virus in African green monkey kidney cell (Vero); format: functional; settings: Chlorocebus sabaeus
# [23] = tested on: Staphylococcus epidermidis; test: Tested for the antimicrobial activity against Staphylococcus epidermidis ATCC 12228; format: functional
# Vero [24] = test: Tested for antiviral activity against parainfluenza virus in african green monkey kidney cell (Vero); format: functional; settings: Chlorocebus sabaeus
# E6SM [25] = test: Antiviral activity against thymidine kinase-deficient (TK-HSV-1)virus in E6SM cell line(human embryonic skin-muscle fibroblasts); format: functional
# MT4 [26] = test: (§2) Tested for effective concentration required to protect MT-4 cells against the cytopathicity of HIV-1(IIIB); format: functional; settings: Homo sapiens, read-out: LC50 (the source's name)
# HeLa [27] = test: Tested for cytotoxic activity in human epithelial cell line (HeLa); format: functional
# MOLT-4 [28] = test: Tested for the inhibitory concentration against cell growth of Tcell leukemic cell line MOLT-4 using MTT assay; format: functional; settings: Homo sapiens
# HeLa [29] = test: The compound was tested for antiviral activity against VSV-virus in human epithelial cells; format: functional
# RPMI-8226 [30] = test: Tested for the concentration required to reduce the viability of leukemia cells by 50% against cell growth of RPMI8226 multiple myeloma using MTT assay; format: functional; settings: Homo sapiens
# HuT78 [31] = test: Tested for the inhibitory concentration against cell growth of human leukemic cell line HuT78; format: functional
# HL-60 [32] = test: Tested for the concentration required to reduce the viability of leukemia cells by 50% against cell growth of HL60 acute myeloid leukemia using MTT assay; format: functional; settings: Homo sapiens, read-out: LC50 (the source's name)
# K562 [33] = test: Tested for the inhibitory concentration against cell growth of K562 chronic myeloid leukemia using MTT assay; format: functional; settings: Homo sapiens
# HL-60 [34] = test: Tested for the inhibitory concentration against cell growth of HL60 acute myeloid leukemia using MTT assay; format: functional; settings: Homo sapiens
# HuT78 [35] = test: Tested for the concentration required to reduce the viability of leukemia cells by 50% against cell growth of HuT78 T lymphoma using MTT assay; format: functional; settings: Homo sapiens, read-out: LC50 (the source's name)
# HEL [36] = test: Tested for antiviral activity against thymidine kinase deficient Varicella zoster virus in human embryonic lung fibroblasts; format: functional
# MT4 [37] = test: Tested for effective concentration required to protect MT-4 cells against the cytopathicity of HIV-2(ROD); format: functional, cell-based; settings: Homo sapiens
# Vero [38] = test: Tested for antiviral activity against Punta toro virus in African green monkey kidney cell (Vero); format: functional; settings: Chlorocebus sabaeus
# CCRF-CEM [39] = test: Tested for the concentration required to reduce the viability of leukemia cells by 50% against cell growth of T cell leukemia cell line CCRF-CEM using MTT assay; format: functional; settings: Homo sapiens, read-out: LC50 (the source's name)
# HeLa [40] = test: Tested for antiviral activity against coxsackie-B4 virus in human epithelial cell line; format: functional
# E6SM [41] = test: Tested for antiviral activity against vaccinia virus in human embryonic skin muscle fibroblast; format: functional; settings: Muscle tissue
# HEL [42] = test: (§3) Tested for antiviral activity against thymidine kinase wild type Varicella zoster virus in human embryonic lung fibroblast; format: functional
# MT4 [43] = test: as §2; format: functional, cell-based; settings: Homo sapiens
# Staphylococcus hominis = test: as §1; format: functional
# E6SM [44] = test: Tested for antiviral activity against thymidine kinase-deficient (TK-HSV-2G) virus in E6SM cell line(human embryonic skin-muscle fibroblasts); format: functional
# E6SM [45] = test: The compound was tested for antiviral activity against thymidine kinase-deficient (TK-HSV-1)virus in E6SM cell line(human embryonic skin-muscle fibroblasts); format: functional
# E6SM [46] = test: as §3; format: functional
# [47] = read-out: LC50 (the source's name)
structure (smiles),measurement,setting,value
S=C(N/N=C(/c1ccccn1)C12CC3CC(CC(C3)C1)C2)NNC(=S)c1ccc(Cl)cc1,TGI,RPMI-8226 [1],68.3 µM
same,MIC,Escherichia coli,> 2000 µg/mL
same,MIC,E6SM [2],> 16 µg/mL
same,MIC,E6SM [3],> 16 µg/mL
same,MCC,Vero [4],80 µg/mL
same,MIC,E6SM [5],> 16 µg/mL
same,MIC,Vero [6],> 16 µg/mL
same,MIC,HEL [7],> 5 µg/mL
same,GI50,RPMI-8226 [8],6.7 µM
same,MCC,E6SM [9],80 µg/mL
same,CC50,MT4 [10],2.8 µM
same,MIC,Klebsiella pneumoniae,> 2000 µg/mL
same,CC50,MOLT-4 [11],100 µM
same,GI50,K562 [12],100 µM
same,MIC,[13],1000 µg/mL
same,GI50,CCRF-CEM [14],76 µM
same,TGI,CCRF-CEM [15],100 µM
same,TGI,HuT78 [16],100 µM
same,CC50,K562 [17],100 µM
same,GI50,HL-60 [18],4.1 µM
same,MCC,HEL [19],5 µg/mL
same,GI50,MOLT-4 [20],100 µM
same,MIC,Staphylococcus aureus,1000 µg/mL
same,MIC,Vero [21],9.6 µg/mL
same,MIC,Vero [22],> 16 µg/mL
same,MIC,[23],1000 µg/mL
same,MIC,Vero [24],> 16 µg/mL
same,MIC,E6SM [25],> 16 µg/mL
same,EC50,MT4 [26],> 3 µM
same,MCC,HeLa [27],> 16 µg/mL
same,TGI,MOLT-4 [28],100 µM
same,MIC,HeLa [29],> 3.2 µg/mL
same,CC50,RPMI-8226 [30]; [47],100 µM
same,GI50,HuT78 [31],8 µM
same,CC50,HL-60 [32],85.5 µM
same,TGI,K562 [33],100 µM
same,TGI,HL-60 [34],9.5 µM
same,CC50,HuT78 [35],100 µM
same,MIC,HEL [36],> 2 µg/mL
same,EC50,MT4 [37],> 3 µM
same,MIC,Vero [38],> 16 µg/mL
same,CC50,CCRF-CEM [39],100 µM
same,MIC,HeLa [40],> 3.2 µg/mL
same,MIC,E6SM [41],> 16 µg/mL
same,MIC,HEL [42],> 2 µg/mL
N/C(S)=N\N=C(\c1ccccn1)C12CC3CC(CC(C3)C1)C2,TGI,RPMI-8226 [1],100 µM
same,MIC,Escherichia coli,> 3180 µg/mL
same,EC50,MT4 [43],> 400 µM
same,MIC,E6SM [2],> 400 µg/mL
same,CC50,E6SM [3],> 400 µg/mL
same,MCC,Vero [4],16 µg/mL
same,MIC,Vero [6],> 3.2 µg/mL
same,MIC,HEL [7],> 5 µg/mL
same,GI50,RPMI-8226 [8],97.9 µM
same,MCC,E6SM [9],> 400 µg/mL
same,CC50,MT4 [10]; [47],> 400 µM
same,MIC,Klebsiella pneumoniae,> 3180 µg/mL
same,CC50,MOLT-4 [11],100 µM
same,MIC,Staphylococcus hominis,> 3180 µg/mL
same,GI50,CCRF-CEM [14],100 µM
same,CC50,K562 [17],100 µM
same,GI50,HL-60 [18],51.1 µM
same,MCC,HEL [19],> 20 µg/mL
same,GI50,MOLT-4 [20],6.4 µM
same,MIC,Staphylococcus aureus,> 3180 µg/mL
same,MIC,Vero [21],> 3.2 µg/mL
same,MIC,Vero [22],> 3.2 µg/mL
same,MIC,[23],> 3180 µg/mL
same,MIC,E6SM [44],> 400 µg/mL
same,MIC,Vero [24],> 3.2 µg/mL
same,MCC,HeLa [27],> 400 µg/mL
same,MIC,HeLa [29],> 400 µg/mL
same,CC50,RPMI-8226 [30],100 µM
same,GI50,HuT78 [31],2.4 µM
same,CC50,HL-60 [32],100 µM
same,TGI,HL-60 [34],100 µM
same,CC50,E6SM [45],> 400 µg/mL
same,CC50,HuT78 [35],100 µM
same,MIC,HEL [36],> 20 µg/mL
same,MIC,Vero [38],> 3.2 µg/mL
same,CC50,CCRF-CEM [39],100 µM
same,MIC,HeLa [40],240 µg/mL
same,MIC,E6SM [41],> 400 µg/mL
same,MIC,E6SM [46],> 20 µg/mL
